Measured values: patent US4680382A, “Analogues of actinomycin D” (priority 1986, dated 1987)
Where “and” joins values, the source holds several entries; their conditions need not be identical. Equal values may be shown once. *1 amine or outer side, *2 acyl side, *3 side chain or, on linkers, in order; H or OH if unused. Where a SMILES comes first, the peptide text is derived from it. Bridges are numbered along the chain shown (N, C = ends). Roman numbers before positions name the chains, in order. [ ]: non-standard residue; d: D form. Actinocin(9to1) = Cc1c2oc3c(C)ccc(C(=O)[*:1])c3nc-2c(C(=O)[*:2])c(N)c1=O; NMeV = CN[C@H](C(=O)O)C(C)C; Sar = CNCC(=O)O

Tests used:
[1] = system: rat hepatic microsomes; assay: Stimulation of adrenochrome formation (superoxide generation) in rat hepatic microsomal incubations; conditions: for adrenochrome formation: 480 nm, 37° C., no more than 100 μM drug, basal 2.11 ± 0.11; for adrenochrome formation / percentage stimulation of adrenochrome formation over basal rate: no SOD; for adrenochrome formation in presence of SOD: SOD (superoxide dismutase) 5 μg/mL added
[2] = system: B16 melanoma; assay: In vivo antitumor activity against B16 melanoma; parameters: species or system BDF1 mice; conditions: for % ILS / surv (survivors on day 65/total injected) / MST (range): at optimal dose; for MST (range): control 29 (20-48); for optimal dose: ip, days 1, 5, 9
Experimental: AMD-OZL analogues 9a and 10a were about as active as AMD and 7-hydroxy-AMD. The potencies of these analogues are reduced in comparison to that of AMD; their optimal doses were higher than that of AMD.
^a 0.2 mL of 1:5 (weight/volume) brei of B16 melanoma implanted
ip on day 0 in groups of nine BDF1 mice. Drugs administered ip.
^b MST (range) median survival time in days (range of individual
^c % ILS (surv), percent increase in lifespan (survivors on day

[3] = Metabolism of tritiated drugs by rat liver microsomes with NADPH-generating system; type: in vitro ADME; conditions: for Percent isolated: unconverted: 37° C.
Experimental: A method of using tumor cell sonicates was developed to study the metabolism of the analogues of AMD. By use of sonicated cells, the dilution effects that would occur if flasks of cultured cells were used are avoided. Although the cells are disrupted by this method, their enzyme systems appear to remain active. Large numbers of tumor cells (P388 murine leukemia) were sonicated in Earle's balanced salt solution (EBSS) and were incubated with tritiated AMD and its analogues 7a and 9a (Table II) for 16 hr. In another experiment, the analogues were treated with rat hepatic microsomes at 37° C. for 6 hr in the presence of a NADPH-generating system. The metabolic products were isolated and identified with the following results (Table II). […] In the microsomes, the major metabolites were in unconjugated forms; in the tumor cell homogenates, the major identified metabolites were glucuronide and sulfate conjugated forms. It should be pointed out that in these metabolic experiments, the identification of these glucuronide and/or sulfate conjugates was made only on the basis of the disappearance of the peaks from the HPLC chromatograms upon treatment with deconjugating enzymes glucarase.
The incubation mixture consisted of 500 μg of microsomal protein 1.6 mM NADP^+, 16 mM glucose 6-phosphate, 10.1 U of glucose-6-phosphate dehydrogenase, 12 mM MgCl2, 10 mM sodium phosphate-potassium phosphate (pH 7.4) and 0.4-0.8 mM of tritiated drugs (including AMD) in a final volume of 5.0 mL. The mixtures were incubated at 37° C. for 6 hr, after which the reaction was stopped by chilling at 0° C. The chilled mixtures were filtered by centrifugation in tubes containing centriflow membrane cones (Amicon, 1053, molecular weight cut-off 25000). The filtrates were adjusted to pH 5.0 before extraction with water-saturated ethyl acetate (step A).
Equal aliquots of the aqueous layer (step A) were treated either with equal volumes of glucarase (5 mg/mL) in 0.05M acetate buffer, pH 5.0, overnight at 37° C. under nitrogen in a shaking water bath or with buffer alone (step B). The aqueous fractions from step B were mixed with an extract of the Amicon cone-retained material. The metabolites at each step were separated by HPLC (Table II). For extraction of the high molecular weight protein conjugates and other tissue-associated materials, the cones were soaked in 0.1N NaOH solution overnight at 0° C. and were processed as in the preceding section before gel filtration. A Sephacryl S-200 superfine column, 1.0× 60 cm, was made in 6M guanidine hydrochloride, pH 5.0, and the lyophilized material in minimum water, pH 7.0, was added to the top of the column and eluted overnight with 6M guanidine hydrochloride, pH 5.0, at a flow rate of 2 cm/hr. A 2% solution of blue dextran 2000 (100 μL, Pharmacia) was added to the column for calibration. Fractions were collected, and the distribution of the material in the fractions was determined by liquid scintillation counting. […] For assay of metabolites, a Varian Moden 5020 gradient liquid chromatograph equipped with a CD-111L chromatography data system was used.

[4] = system: calf-thymus DNA; assay: Equilibrium binding to calf-thymus DNA, Scatchard plots of binding isotherms (spectrophotometric); conditions: Scatchard plot
Experimental: The "reverse" analogues bind to calf-thymus DNA, but the spectrophotometrically determined binding (Kapp and Bapp, equilibrium binding values) constants are found to be lower than those of AMD. The binding is also measured by thermal denaturation of DNA.
The equilibrium binding constants (Kapp and Bapp) of the "reverse" methyl 7a and the "reverse" phenyl 8a were determined from the Scatchard plots of binding isotherms; the Scatchard plots are produced according to the previously described methods using calf-thymus DNA [Sengupta et al, Biochem. Biophys. Acta 521, 89 (1978)]. The Kapp values are 2.5×10^6 and 2.3×10^6 M^-1, respectively; corresponding Bapp values are 0.038 and 0.036. […] But, these "reverse" analogues associate with DNA less strongly; their frequency of binding is also lower compared to that of AMD. However, the "reverse" analogues fail to cause any measurable change in the ratio of the intrinsic viscosity (γ) of DNA with the increasing ratios of [ligand]/DNA base pair (r), even when low molecular weight DNAs (0.5×10^5 to 1.0×10^5) were employed.

[5] = system: P388 cells; assay: Inhibition of RNA synthesis (2-[14C]uridine incorporation) in P388 cells; type: cell-based, murine; conditions: for IC50: 50% reduction in 1 hr of 2-[14C]uridine incorporation, read-out: IC50 RNA synth; for IC50 DNA/IC50 RNA: ratio
Experimental: Experiments for inhibition of nucleic acid synthesis in tumor cells in vitro were carried out with P388 tumor cells, details of which were reported by Sengupta et al, J. Med. Chem., 18, 1175 (1975). […] AMD-OZLs inhibit either process with equal activity and with the potency of its metabolite 7-hydroxy-AMD.
^b IC50 (RNA) = concentration of inhibitor in μM required to
cause 50% reduction (in 1 hr) in 2[^14 C]uridine incorporation into
acid precipitable material with use of P388 cells.

[6] = system: CCRF-CEM human lymphoblastic leukemic cells; assay: In vitro cytotoxicity against CCRF-CEM cells; type: cell-based; conditions: 48 hr
Experimental: ^a Human lymphoblastic leukemic cells.
The analogues were tested for their cytotoxicity against tumor cells (time, 48 hr). […] This may be associated with the initial microsomal transformation of the "reverse" analogues to "symmetrical" analogue and/or other alternate bioactive forms (e.g., free-radicals, O2^-), followed by deactivation via formation of conjugates and facile elimination of these from the host. The "reverse" analogues show reduced toxicity in vivo and also the tritiated "reverse" 7a is metabolized in vitro.

Cc1nc2c(C(=O)NC3C(=O)NC(C(C)C)C(=O)N4CCCC4C(=O)N(C)CC(=O)N(C)C(C(C)C)C(=O)OC3C)c3nc4c(C(=O)NC5C(=O)NC(C(C)C)C(=O)N6CCCC6C(=O)N(C)CC(=O)N(C)C(C(C)C)C(=O)OC5C)c(N)c(=O)c(C)c-4oc3c(C)c2o1 [7a, 7-Amino-2,9,11-trimethyl-8H-8-oxooxazolo [4,5-b]phenoxazine 4,6-bis[carbonyl-L-threonyl-D-valyl-L-prolylsarcosyl-L-N-methylvaline-(threonine hydroxyl)] lactone]
adrenochrome formation [1]: 6.04 ± 0.19 nmol min^-1 (mg of protein)^-1
adrenochrome formation in presence of SOD [1]: inhibited
percentage stimulation of adrenochrome formation over basal rate [1]: 186%
% ILS [2]: 90%
surv (survivors on day 65/total injected) [2]: 3/9
MST (range) [2]: 55 (33-57) days
optimal dose [2]: 300 μg/kg per inj
Percent isolated: "tissue" bound ([3]; rat liver microsomes (M), 6 hr): 3.7%
Percent isolated: protein conjugates ([3]; rat liver microsomes (M), 6 hr): 3.5%
Percent isolated: unidentified metabolite ([3]; rat liver microsomes (M), 6 hr): 8.5%
Percent metabolite isolated: 4a glucuronide and/or sulfate ([3]; rat liver microsomes (M), 6 hr): nil
Percent metabolite isolated: "symmetrical" AMD (4a) ([3]; rat liver microsomes (M), 6 hr): 62.5%
Percent isolated: unconverted ([3]; rat liver microsomes (M), 6 hr): 21%
Bapp (equilibrium binding value) [4]: 0.038
Kapp (equilibrium binding constant) [4]: 2.5e+06 M⁻¹
IC50 [5]: 90 nM
IC50 DNA/IC50 RNA [5]: 11.22
in vitro (CCRF-CEM) ID50 [6]: 110 nM

Cc1c2oc3c(C)c(O)c(N)c(C(=O)NC4C(=O)NC(C(C)C)C(=O)N5CCCC5C(=O)N(C)CC(=O)N(C)C(C(C)C)C(=O)OC4C)c3nc-2c(C(=O)NC2C(=O)NC(C(C)C)C(=O)N3CCCC3C(=O)N(C)CC(=O)N(C)C(C(C)C)C(=O)OC2C)c(N)c1=O (stereo not drawn) [4a, 7-Hydroxy-8-amino-actinomycin D]
adrenochrome formation [1]: 19.3 ± 1.04 nmol min^-1 (mg of protein)^-1
adrenochrome formation in presence of SOD [1]: inhibited
percentage stimulation of adrenochrome formation over basal rate [1]: 815%
% ILS [2]: 96%
surv (survivors on day 65/total injected) [2]: 4/9
MST (range) [2]: 57 (33-61) days
optimal dose [2]: 300 μg/kg per inj
Bapp (equilibrium binding value) [4]: 1.3
Kapp (equilibrium binding constant) [4]: 6.3e+07 M⁻¹
IC50 [5]: 1150 nM
IC50 DNA/IC50 RNA [5]: 0.97
in vitro (CCRF-CEM) ID50 [6]: 30 nM

Cc1nc2c(C(=O)NC3C(=O)NC(C(C)C)C(=O)N4CCCC4C(=O)N(C)CC(=O)N(C)C(C(C)C)C(=O)OC3C)c3nc4c(C(=O)NC5C(=O)NC(C(C)C)C(=O)N6CCCC6C(=O)N(C)CC(=O)N(C)C(C(C)C)C(=O)OC5C)cc(=O)c(C)c-4oc3c(C)c2o1 (stereo not drawn) [9a]
adrenochrome formation [1]: 4.36 ± 0.21 nmol min^-1 (mg of protein)^-1
adrenochrome formation in presence of SOD [1]: inhibited
percentage stimulation of adrenochrome formation over basal rate [1]: 106%
% ILS [2]: 55%
surv (survivors on day 65/total injected) [2]: 1/9
MST (range) [2]: 45 (32-55) days
optimal dose [2]: 750 μg/kg per inj
Percent isolated: "tissue" bound ([3]; rat liver microsomes (M), 6 hr): 5.5%
Percent isolated: protein conjugates ([3]; rat liver microsomes (M), 6 hr): 9.5%
Percent isolated: unidentified metabolite ([3]; rat liver microsomes (M), 6 hr): 6%
Percent metabolite isolated: 2a glucuronide and/or sulfate ([3]; rat liver microsomes (M), 6 hr): nil
Percent metabolite isolated: 7-hydroxy-AMD (2a) ([3]; rat liver microsomes (M), 6 hr): 40.5%
Percent isolated: unconverted ([3]; rat liver microsomes (M), 6 hr): 38.5%

Cc1c2oc3c(C)ccc(C(=O)N[C@@H]4C(=O)N[C@H](C(C)C)C(=O)N5CCC[C@H]5C(=O)N(C)CC(=O)N(C)[C@@H](C(C)C)C(=O)O[C@@H]4C)c3nc-2c(C(=O)N[C@@H]2C(=O)N[C@H](C(C)C)C(=O)N3CCC[C@H]3C(=O)N(C)CC(=O)N(C)[C@@H](C(C)C)C(=O)O[C@@H]2C)c(N)c1=O [AMD, Actinomycin D] (I: T[dV]P[Sar][NMeV] / II: T[dV]P[Sar][NMeV]; ester I:1-I:C, II:1-II:C; linker I:N-II:N via Actinocin(9to1))
adrenochrome formation [1]: 2.29 ± 0.33 nmol min^-1 (mg of protein)^-1
adrenochrome formation in presence of SOD [1]: inhibited
percentage stimulation of adrenochrome formation over basal rate [1]: 8.5%
% ILS [2]: 48%
surv (survivors on day 65/total injected) [2]: 2/9
MST (range) [2]: 43 (36-54) days
optimal dose [2]: 250 μg/kg per inj
Percent isolated: unconverted ([3]; rat liver microsomes (M), 6 hr): 100%
formation of metabolite or conjugate ([3]; tumor cell homogenate and rat liver microsomes): did not form any detectable metabolite or conjugate
Bapp (equilibrium binding value) [4]: 0.108
Kapp (equilibrium binding constant) [4]: 2.3e+07 M⁻¹
IC50 [5]: 50 nM
IC50 DNA/IC50 RNA [5]: 22 and 22.40
in vitro (CCRF-CEM) ID50 [6]: 50 nM
